From ChEMBL document CHEMBL3400064, “Synthesis and biological evaluation of 2-arylbenzimidazoles targeting Leishmania donovani” (Bioorg Med Chem Lett, 2015)

Columns and labels:
Leishmania donovani [1] = test: Antileishmanial activity against axenic amastigote Leishmania donovani MHOM/SD/1962/1S-Cl2d assessed as inhibition of parasite growth after 24 hrs at 50 uM by alamarBlue assay; assay type: functional
Leishmania donovani [2] = test: Antileishmanial activity against axenic amastigote Leishmania donovani MHOM/SD/1962/1S-Cl2d assessed as inhibition of parasite growth after 24 hrs at 15 uM by alamarBlue assay; assay type: functional
Leishmania donovani [3] = test: Antileishmanial activity against axenic amastigote Leishmania donovani MHOM/SD/1962/1S-Cl2d assessed as inhibition of parasite growth after 24 hrs at 5 uM by alamarBlue assay; assay type: functional
[4] = Cytotoxicity against mouse NIH/3T3 cells assessed as viability after 48 hrs by alamarBlue assay; assay type: cell-based; settings: NIH3T3, 48 h
Leishmania donovani [5] = test: Antileishmanial activity against Leishmania donovani MHOM/SD/1962/1S-Cl2d infected THP1 cells assessed as inhibition of intracellular […] amastigote after 48 hrs at 50 uM by Bright-Glo luciferase assay; assay type: functional, organism-based; settings: THP-1, 48 h
[6] = Cytotoxicity against mouse NIH/3T3 cells assessed as viability at 15 uM after 48 hrs by alamarBlue assay; assay type: cell-based, NIH3T3; settings: read-out: Activity
Leishmania donovani [7] = test: Antileishmanial activity against Leishmania donovani MHOM/SD/1962/1S-Cl2d infected THP1 cells assessed as inhibition of intracellular […] amastigote at 5 uM after 48 hrs at 50 uM by Bright-Glo luciferase assay; assay type: functional, THP-1

| Compound | inhibition at 50 µM (Leishmania donovani [1]) [%] | inhibition at 15 µM (Leishmania donovani [2]) [%] | inhibition at 5 µM (Leishmania donovani [3]) [%] | IC50 [4] [µM] | IC50 (Leishmania donovani [5]) [µM] | viability at 48 h, 15 µM [6] [%] | inhibition (INH) (Leishmania donovani [7]) [%] |
| --- | --- | --- | --- | --- | --- | --- | --- |
| O=C(Nc1cccc(-c2nc3cc(Cl)ccc3[nH]2)c1)c1cccs1 | 80 | 57 | 11 |  |  |  |  |
| COc1ccc(-c2nc3ccccc3[nH]2)cc1NC(=O)c1cccs1 | 38 |  |  |  |  |  |  |
| O=C(Nc1cccc(-c2nc3ccccc3[nH]2)c1)c1ccsc1 | 83 | 67 | 17 |  |  |  |  |
| O=C(Nc1cccc(-c2nc3ccccc3[nH]2)c1)c1ccccc1 | 56 | 43 | 17 |  |  |  |  |
| O=C(Nc1cccc(-c2nc3ccccc3[nH]2)c1)C1CCCCC1 | 68 | 61 | 41 | 22.2 | 8.8 | 23.8 | 19.8 |
| CCc1ccccc1C(=O)Nc1cccc(-c2nc3ccccc3[nH]2)c1 | 88 | 52 | 21 |  |  |  |  |
| CCCn1c(-c2cccc(NC(=O)c3cccs3)c2)nc2ccccc21 | 86 | 70 | 25 |  |  |  |  |
| CC(=O)Nc1cccc(-c2nc3ccccc3[nH]2)c1 | 56 | 21 | 20 |  |  |  |  |
| CCn1c(-c2cccc(NC(=O)c3cccs3)c2)nc2ccccc21 | 87 | 81 | 24 |  |  |  |  |
| CC(C)(C)C(=O)Nc1cccc(-c2nc3ccccc3[nH]2)c1 | 54 | 44 | 27 |  |  |  |  |
| Cc1ccc2[nH]c(-c3cccc(NC(=O)c4cccs4)c3)nc2c1 | 77 | 50 | 36 | 16.7 | 10.5 | 14.1 | 4.1 |
| COC(=O)c1cccc(C(=O)Nc2cccc(-c3nc4ccccc4[nH]3)c2)c1 | 100 | 74 | 18 |  |  |  |  |
| O=C(Cc1cccs1)Nc1cccc(-c2nc3ccccc3[nH]2)c1 | 49 |  |  |  |  |  |  |
| Cn1cccc1C(=O)Nc1cccc(-c2nc3ccccc3[nH]2)c1 | 33 |  |  |  |  |  |  |
| O=C(Nc1cccc(-c2cc3ccccc3[nH]2)c1)c1cccs1 | 86 | 33 | 16 |  |  |  |  |
| CN(C(=O)c1cccs1)c1cccc(-c2nc3ccccc3[nH]2)c1 | 40 | 21 | 3 |  |  |  |  |
| O=C(Nc1ccccc1)c1cccc(-c2nc3ccccc3[nH]2)c1 | 87 | 57 | 8 |  |  |  |  |
| O=C(Nc1cccc(-c2nc3ccccc3o2)c1)c1cccs1 | 34 |  |  |  |  |  |  |
| O=C(Nc1cccc(-c2nc3ccccc3[nH]2)c1)NC1CCCCC1 | 94 | 90 | 24 |  |  |  |  |
| O=C(Nc1ccc(-c2nc3ccccc3[nH]2)cc1)c1cccs1 | 22 |  |  |  |  |  |  |
| O=C(Nc1cccc(-c2nc3ccccc3[nH]2)c1)c1ccccc1F | 74 | 37 | 24 |  |  |  |  |
| Cc1cc(C)cc(C(=O)Nc2cccc(-c3nc4ccccc4[nH]3)c2)c1 | 88 | 56 | 22 |  |  |  |  |
| O=C(Nc1cccc(-c2nc3ccccc3[nH]2)c1)c1cc(Cl)cc(Cl)c1 | 97 | 44 | 28 |  |  |  |  |
| O=C(Nc1cccc(-c2nc3ccccc3[nH]2)c1)c1ccc(Cl)cc1 | 63 | 41 | 27 |  |  |  |  |
| O=C(Nc1cccc(-c2nc3ccccc3[nH]2)c1)c1cccc(C(F)(F)F)c1 | 83 | 68 | 17 |  |  |  |  |
| O=C(Nc1cccc(-c2nc3ccccc3[nH]2)c1)c1cccc(Cl)c1 | 57 | 60 | 26 |  |  |  |  |

| Compound | inhibition at 50 µM (Leishmania donovani [1]) [%] | inhibition at 15 µM (Leishmania donovani [2]) [%] | inhibition at 5 µM (Leishmania donovani [3]) [%] | IC50 [4] [µM] | IC50 (Leishmania donovani [5]) [µM] | viability at 48 h, 15 µM [6] [%] | inhibition (INH) (Leishmania donovani [7]) [%] |
| --- | --- | --- | --- | --- | --- | --- | --- |
| O=C(Nc1cccc(-c2nc3ccccc3[nH]2)c1)c1ccoc1 | 80 | 39 | 19 |  |  |  |  |
| O=C(Nc1cccc(-c2nc3ccccc3[nH]2)c1)c1ccccn1 | 57 | 35 | 19 |  |  |  |  |
| O=C(Nc1ccccc1)Nc1ccccc1-c1nc2ccccc2[nH]1 | 67 | 16 | 12 |  |  |  |  |
| O=C(Nc1cccc(-c2nc3ccccc3[nH]2)c1)c1ccccc1Cl | 79 | 55 | 23 |  |  |  |  |
| O=C(Nc1cccc(-c2nc3ccccc3[nH]2)c1)C1CCCC1 | 87 | 76 | 22 |  |  |  |  |
| Cc1ccccc1C(=O)Nc1cccc(-c2nc3ccccc3[nH]2)c1 | 55 | 47 | 22 |  |  |  |  |
| O=C(Nc1cccc(-c2nc3ccccc3[nH]2)c1)c1ccc(-c2ccccc2)cc1 | 96 | 80 | 41 |  |  | 88.7 |  |
| CCCCC(=O)Nc1cccc(-c2nc3ccccc3[nH]2)c1 | 82 | 67 | 15 |  |  |  |  |
| O=C(Nc1cccc(-c2nc3ccccc3[nH]2)c1)c1cscn1 | 45 |  |  |  |  |  |  |
| Cc1ccc(C(=O)Nc2cccc(-c3nc4ccccc4[nH]3)c2)cc1 | 82 | 71 | 23 |  |  |  |  |
| Cc1ccc(C)c(C(=O)Nc2cccc(-c3nc4ccccc4[nH]3)c2)c1 | 78 | 28 | 15 |  |  |  |  |
| COc1ccccc1C(=O)Nc1cccc(-c2nc3ccccc3[nH]2)c1 | 75 | 27 | 23 |  |  |  |  |
| COc1ccc(C(=O)Nc2cccc(-c3nc4ccccc4[nH]3)c2)cc1 | 64 | 52 | 35 |  |  | 54.1 |  |
| Cc1cccc(C(=O)Nc2cccc(-c3nc4ccccc4[nH]3)c2)c1 | 59 | 52 | 26 |  |  |  |  |
| O=C(Nc1ccccc1)Nc1cccc(-c2nc3ccccc3[nH]2)c1 | 84 | 73 | 13 |  |  |  |  |
| O=C(Nc1cccc(-c2nc3ccccc3[nH]2)c1)c1ccco1 | 43 |  |  |  |  |  |  |
| O=S(=O)(Nc1cccc(-c2nc3ccccc3[nH]2)c1)c1ccccc1 | 52 | 30 | 0 |  |  |  |  |
| COc1cccc(C(=O)Nc2cccc(-c3nc4ccccc4[nH]3)c2)c1 | 49 |  |  |  |  |  |  |
| O=C(Nc1ccccc1-c1nc2ccccc2[nH]1)c1cccs1 | 51 | 26 | 26 |  |  |  |  |
| COc1cc(OC)cc(C(=O)Nc2cccc(-c3nc4ccccc4[nH]3)c2)c1 | 83 | 58 | 32 |  |  |  |  |
| O=C(Nc1cccc(-c2nc3ccccc3[nH]2)c1)c1cc(Br)cc(Br)c1 | 72 | 55 | 29 |  |  |  |  |
| O=C(Cc1cccs1)Nc1cccc(-c2ncc[nH]2)c1 | 0 |  |  |  |  |  |  |
| Cc1c(NC(=O)c2cccs2)cccc1-c1nc2ccccc2[nH]1 | 31 |  |  |  |  |  |  |
| O=C(O)c1cccc(C(=O)Nc2cccc(-c3nc4ccccc4[nH]3)c2)c1 | 0 |  |  |  |  |  |  |
| O=C(Nc1cccc(-c2nc3ccccc3[nH]2)c1)c1ccccc1C(F)(F)F | 82 | 73 | 22 |  |  |  |  |
